What was measured:
Assay type in all cases: in vivo
[1] = system: Italian ryegrass (Lolium multiflorum); test: Test A preemergence, visual injury rating
Procedure, shortened: (§1)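 Greenhouse pot test, loam/sand soil. Formulation: non-phytotoxic solvent mix plus surfactant. Pre: directed spray onto soil after sowing. Post: plants at 1–2 leaf, 2–10 cm. Rated visually vs untreated controls at ~10 d, 0 (no effect) to 100 (complete control).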

[2] = system: barnyardgrass (Echinochloa crus-galli); test: Test A preemergence, visual injury rating
Procedure, shortened: as §1

[3] = system: giant foxtail (Setaria faberii); test: Test A preemergence, visual injury rating
Procedure, shortened: as §1

kochia (Kochia scoparia) [4] = test: Test A preemergence, visual injury rating
Procedure, shortened: as §1

[5] = system: pigweed (Amaranthus retroflexus); test: Test A preemergence, visual injury rating
Procedure, shortened: as §1

[6] = system: ragweed (common ragweed, Ambrosia elatior); test: Test A preemergence, visual injury rating
Procedure, shortened: as §1

[7] = system: Italian ryegrass (Lolium multiflorum); test: Test A postemergence, visual injury rating; conditions: 0 is no effect, 100 is complete control; for Ryegrass, Italian plant response rating: 0 to 100 scale, approximately 10 days
Procedure, shortened: as §1

[8] = system: barnyardgrass (Echinochloa crus-galli); test: Test A postemergence, visual injury rating; conditions: 0 is no effect, 100 is complete control; for Barnyardgrass plant response rating: 0 to 100 scale, approximately 10 days
Procedure, shortened: as §1

[9] = system: blackgrass (Alopecurus myosuroides); test: Test A postemergence, visual injury rating; conditions: 0 is no effect, 100 is complete control; for Blackgrass plant response rating: 0 to 100 scale, approximately 10 days
Procedure, shortened: as §1

corn (Zea mays) = test: Test A postemergence, visual injury rating; conditions: 0 is no effect, 100 is complete control; for Corn plant response rating: 0 to 100 scale, approximately 10 days
Procedure, shortened: as §1

[10] = system: galium (catchweed bedstraw, Galium aparine); test: Test A postemergence, visual injury rating; conditions: 0 is no effect, 100 is complete control; for Galium plant response rating: 0 to 100 scale, approximately 10 days
Procedure, shortened: as §1

[11] = system: giant foxtail (Setaria faberii); test: Test A postemergence, visual injury rating; conditions: 0 is no effect, 100 is complete control; for Foxtail, Giant plant response rating: 0 to 100 scale, approximately 10 days
Procedure, shortened: as §1

kochia (Kochia scoparia) [12] = test: Test A postemergence, visual injury rating; conditions: 0 is no effect, 100 is complete control; for Kochia plant response rating: 0 to 100 scale, approximately 10 days
Procedure, shortened: as §1

[13] = system: pigweed (Amaranthus retroflexus); test: Test A postemergence, visual injury rating; conditions: 0 is no effect, 100 is complete control; for Pigweed plant response rating: 0 to 100 scale, approximately 10 days
Procedure, shortened: as §1

[14] = system: ragweed (common ragweed, Ambrosia elatior); test: Test A postemergence, visual injury rating; conditions: 0 is no effect, 100 is complete control; for Ragweed plant response rating: 0 to 100 scale, approximately 10 days
Procedure, shortened: as §1

[15] = system: wheat (Triticum aestivum); test: Test A postemergence, visual injury rating; conditions: 0 is no effect, 100 is complete control; for Wheat plant response rating: 0 to 100 scale, approximately 10 days
Procedure, shortened: as §1

[16] = system: barnyardgrass (Echinochloa crus-galli); test: Test B flooded paddy test, plant response rating; conditions: 250 g ai/ha; Flood; scale of 0 to 100 where 0 is no effect and 100 is complete control; 13 to 15 days
Procedure, shortened: (§2)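 Flooded 3 cm over soil; compound into paddy water; depth kept constant. Greenhouse 13–15 d.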

[17] = system: ducksalad (Heteranthera limosa); test: Test B flooded paddy test, plant response rating; conditions: 250 g ai/ha; Flood; scale of 0 to 100 where 0 is no effect and 100 is complete control; 13 to 15 days
Procedure, shortened: as §2

rice (Oryza sativa) = test: Test B flooded paddy test, plant response rating; conditions: 250 g ai/ha; Flood; scale of 0 to 100 where 0 is no effect and 100 is complete control; 13 to 15 days
Procedure, shortened: as §2

[18] = system: sedge, umbrella (small-flower umbrella sedge, Cyperus difformis); test: Test B flooded paddy test, plant response rating; conditions: 250 g ai/ha; Flood; scale of 0 to 100 where 0 is no effect and 100 is complete control; 13 to 15 days
Procedure, shortened: as §2

[19] = 125 g ai/ha, 0 to 100 scale (0 no effect, 100 complete control)
[20] = 500 g ai/ha, 0 to 100 scale (0 no effect, 100 complete control)
[21] = 31 g ai/ha, 0 to 100 scale, 0 no effect, 100 complete control

In the case of `CN(OCC(F)(F)F)C(=O)c1c(Br)cccc1Oc1ncc(Cl)cn1` [Compound 25], the “Ryegrass, Italian plant response rating” value [1, 19] is reported as 0, the “Ryegrass, Italian plant response rating” value [1, 20] is reported as 0 and the “Barnyardgrass plant response rating” value [2, 19] is reported as 0. The “Barnyardgrass plant response rating” value [2, 20] was 30, the “Foxtail, Giant plant response rating” value [3, 19] was 10 and the “Foxtail, Giant plant response rating” value [3, 20] was 60. The “Kochia plant response rating” value (kochia (Kochia scoparia) [4]; [19]) was 0, the “Kochia plant response rating” value (kochia (Kochia scoparia) [4]; [20]) was 50 and the “Pigweed plant response rating” value [5, 19] was 40. For the same compound, the “Pigweed plant response rating” value [5, 20] was 80, the “Ragweed plant response rating” value [6, 19] was 0 and the “Ragweed plant response rating” value [6, 20] was 0. For the same compound, the “Ryegrass, Italian plant response rating (0 to 100 scale)” value ([7]; 125 g ai/ha) was 0, the “Ryegrass, Italian plant response rating (0 to 100 scale)” value ([7]; 500 g ai/ha) was 0 and the “Barnyardgrass plant response rating (0 to 100 scale)” value ([8]; 125 g ai/ha) was 0. For the same compound, the “Barnyardgrass plant response rating (0 to 100 scale)” value ([8]; 500 g ai/ha) was 10, the “Blackgrass plant response rating (0 to 100 scale)” value ([9]; 125 g ai/ha) was 0 and the “Blackgrass plant response rating (0 to 100 scale)” value ([9]; 500 g ai/ha) was 30. The “Corn plant response rating (0 to 100 scale)” value (corn (Zea mays); 125 g ai/ha) was 0, the “Corn plant response rating (0 to 100 scale)” value (corn (Zea mays); 500 g ai/ha) was 20 and the “Galium plant response rating (0 to 100 scale)” value ([10]; 125 g ai/ha) was 20. For the same compound, the “Galium plant response rating (0 to 100 scale)” value ([10]; 500 g ai/ha) was 50, the “Foxtail, Giant plant response rating (0 to 100 scale)” value ([11]; 125 g ai/ha) was 0 and the “Foxtail, Giant plant response rating (0 to 100 scale)” value ([11]; 500 g ai/ha) was 10. For the same compound, the “Kochia plant response rating (0 to 100 scale)” value (kochia (Kochia scoparia) [12]; 125 g ai/ha) was 10, the “Kochia plant response rating (0 to 100 scale)” value (kochia (Kochia scoparia) [12]; 500 g ai/ha) was 50 and the “Pigweed plant response rating (0 to 100 scale)” value ([13]; 125 g ai/ha) was 30. For the same compound, the “Pigweed plant response rating (0 to 100 scale)” value ([13]; 500 g ai/ha) was 60, the “Ragweed plant response rating (0 to 100 scale)” value ([14]; 125 g ai/ha) was 10 and the “Ragweed plant response rating (0 to 100 scale)” value ([14]; 500 g ai/ha) was 20. For the same compound, the “Wheat plant response rating (0 to 100 scale)” value ([15]; 125 g ai/ha) was 0, the “Wheat plant response rating (0 to 100 scale)” value ([15]; 500 g ai/ha) was 10 and the “Plant response rating, Barnyardgrass” value [16] was 0. For the same compound, the “Plant response rating, Ducksalad” value [17] was 0, the “Plant response rating, Rice” value (rice (Oryza sativa)) was 0 and the “Plant response rating, Sedge, Umbrella” value [18] was 0.

`O=C(OCCC1CC1)c1c(Br)cccc1Oc1ncc(Cl)cn1` [Compound 123] was tested, and the “Plant response rating, Ryegrass, Italian” value [1, 21] was 0, the “Plant response rating, Ryegrass, Italian” value [1, 19] was 20 and the “Plant response rating, Barnyardgrass” value [2, 21] was 20. For the same compound, the “Plant response rating, Barnyardgrass” value [2, 19] was 70, the “Plant response rating, Foxtail, Giant” value [3, 21] was 40 and the “Plant response rating, Foxtail, Giant” value [3, 19] was 100. For the same compound, the “Plant response rating, Kochia” value (kochia (Kochia scoparia) [4]; [21]) was 0, the “Plant response rating, Kochia” value (kochia (Kochia scoparia) [4]; [19]) was 10 and the “Plant response rating, Pigweed” value [5, 21] was 0. The “Plant response rating, Pigweed” value [5, 19] was 80, the “Plant response rating, Ragweed” value [6, 21] was 0 and the “Plant response rating, Ragweed” value [6, 19] was 0. For the same compound, the “Ryegrass, Italian plant response rating” value ([7]; 31 g ai/ha) was 0, the “Ryegrass, Italian plant response rating” value ([7]; 125 g ai/ha) was 20 and the “Barnyardgrass plant response rating” value ([8]; 31 g ai/ha) was 10. For the same compound, the “Barnyardgrass plant response rating” value ([8]; 125 g ai/ha) was 50, the “Blackgrass plant response rating” value ([9]; 31 g ai/ha) was 10 and the “Blackgrass plant response rating” value ([9]; 125 g ai/ha) was 50. The “Corn plant response rating” value (corn (Zea mays); 31 g ai/ha) was 10, the “Corn plant response rating” value (corn (Zea mays); 125 g ai/ha) was 10 and the “Galium plant response rating” value ([10]; 31 g ai/ha) was 90. The “Galium plant response rating” value ([10]; 125 g ai/ha) was 100, the “Foxtail, Giant plant response rating” value ([11]; 31 g ai/ha) was 20 and the “Foxtail, Giant plant response rating” value ([11]; 125 g ai/ha) was 50. The “Kochia plant response rating” value (kochia (Kochia scoparia) [12]; 31 g ai/ha) was 50, the “Kochia plant response rating” value (kochia (Kochia scoparia) [12]; 125 g ai/ha) was 90 and the “Pigweed plant response rating” value ([13]; 31 g ai/ha) was 70. The “Pigweed plant response rating” value ([13]; 125 g ai/ha) was 100, the “Ragweed plant response rating” value ([14]; 31 g ai/ha) was 0 and the “Ragweed plant response rating” value ([14]; 125 g ai/ha) was 10. The “Wheat plant response rating” value ([15]; 31 g ai/ha) was 0, the “Wheat plant response rating” value ([15]; 125 g ai/ha) was 0 and the “Plant response rating, Barnyardgrass” value [16] was 40. The “Plant response rating, Ducksalad” value [17] was 95, the “Plant response rating, Rice” value (rice (Oryza sativa)) was 35 and the “Plant response rating, Sedge, Umbrella” value [18] was 95.

For `CCOc1cccc(Oc2ncc(Cl)cn2)c1C(=O)OCCC(F)(F)F` [Compound 116], the “Plant response rating, Ryegrass, Italian” value [1, 21] was 0, the “Plant response rating, Ryegrass, Italian” value [1, 19] was 0 and the “Plant response rating, Barnyardgrass” value [2, 21] was 0. For the same compound, the “Plant response rating, Barnyardgrass” value [2, 19] was 0, the “Plant response rating, Foxtail, Giant” value [3, 21] was 0 and the “Plant response rating, Foxtail, Giant” value [3, 19] was 30. For the same compound, the “Plant response rating, Kochia” value (kochia (Kochia scoparia) [4]; [21]) was 0, the “Plant response rating, Kochia” value (kochia (Kochia scoparia) [4]; [19]) was 0 and the “Plant response rating, Pigweed” value [5, 21] was 50. The “Plant response rating, Pigweed” value [5, 19] was 70, the “Plant response rating, Ragweed” value [6, 21] was 30 and the “Plant response rating, Ragweed” value [6, 19] was 0. For the same compound, the “Ryegrass, Italian plant response rating” value ([7]; 31 g ai/ha) was 0, the “Ryegrass, Italian plant response rating” value ([7]; 125 g ai/ha) was 0 and the “Barnyardgrass plant response rating” value ([8]; 31 g ai/ha) was 0. The “Barnyardgrass plant response rating” value ([8]; 125 g ai/ha) was 10, the “Blackgrass plant response rating” value ([9]; 31 g ai/ha) was 0 and the “Blackgrass plant response rating” value ([9]; 125 g ai/ha) was 0. The “Corn plant response rating” value (corn (Zea mays); 31 g ai/ha) was 0, the “Corn plant response rating” value (corn (Zea mays); 125 g ai/ha) was 10 and the “Galium plant response rating” value ([10]; 31 g ai/ha) was 30. For the same compound, the “Galium plant response rating” value ([10]; 125 g ai/ha) was 60, the “Foxtail, Giant plant response rating” value ([11]; 31 g ai/ha) was 0 and the “Foxtail, Giant plant response rating” value ([11]; 125 g ai/ha) was 20. The “Kochia plant response rating” value (kochia (Kochia scoparia) [12]; 31 g ai/ha) was 0, the “Kochia plant response rating” value (kochia (Kochia scoparia) [12]; 125 g ai/ha) was 10 and the “Pigweed plant response rating” value ([13]; 31 g ai/ha) was 40. For the same compound, the “Pigweed plant response rating” value ([13]; 125 g ai/ha) was 50, the “Ragweed plant response rating” value ([14]; 31 g ai/ha) was 0 and the “Ragweed plant response rating” value ([14]; 125 g ai/ha) was 0. For the same compound, the “Wheat plant response rating” value ([15]; 31 g ai/ha) was 0, the “Wheat plant response rating” value ([15]; 125 g ai/ha) was 0 and the “Plant response rating, Barnyardgrass” value [16] was 30. The “Plant response rating, Ducksalad” value [17] was 75, the “Plant response rating, Rice” value (rice (Oryza sativa)) was 70 and the “Plant response rating, Sedge, Umbrella” value [18] was 90.
